Data reported in paper PMC11071266, “The putative proton-coupled organic cation antiporter is involved in uptake of triptans into human brain capillary endothelial cells” (Fluids and Barriers of the CNS, 2024).
Where “and” joins values, the source holds several entries; their conditions need not be identical. Equal entries are not always repeated. Entries after “also recorded” stand apart in the source; their conditions may differ. Where two headings read alike, the source gives them in different places.

Legend:
[1] = Physicochemical properties extracted from databases
Description: Triptans are a relatively homogeneous group of drug compounds with similar physicochemical properties, including molecular weights < 400 g/mol and a low to moderate lipophilicity (cLogD values ranging from − 2.1–0.18). […] As a consequence, it is unlikely that triptans cross the brain microvascular endothelium through passive diffusion to a clinically relevant extent. Table 1 summarizes structures and physicochemical properties of the triptans, as well as oxycodone and pyrilamine, which are two prototypical H^+/OC antiporter substrates included in this study.

H^+/OC antiporter [2] = assay: Cellular uptake into hCMEC/D3 cells after intra- and extracellular pH manipulation; type: cell-based, human; conditions: for Cellular uptake after intracellular alkalization: acute exposure to 30 mM NH4Cl vs control pH 7.4; for Cellular uptake at extracellular acidification: extracellular pH 6.8 vs pH 7.4; for Cellular uptake at extracellular alkalization: extracellular pH 8.2 vs pH 7.4; for Proton-gradient dependence of uptake: hCMEC/D3 cells; for Cellular uptake after intracellular acidification: preexposure to 30 mM NH4Cl followed by media change vs control
H^+/OC antiporter [3] = assay: Cellular uptake into hCMEC/D3 cells in absence or presence of pyrilamine or oxycodone; type: cell-based, human; conditions: for Inhibition by oxycodone (of the compound's uptake) / Inhibition by pyrilamine (of the compound's uptake): triptan 50 µM, asterisks = P level; for Inhibition by oxycodone (of the compound's uptake): 500 µM oxycodone; for Inhibition by pyrilamine (of the compound's uptake): 500 µM pyrilamine
Procedure: (§1) The cells were equilibrated in hHBSS with or without inhibitor for 15 min (37 °C, 90 rpm). The compound of interest was spiked into the hHBSS followed by incubation for a designated time. The timeframe of the initial uptake rate was validated into hCMEC/D3 cells (Fig. 1 and Additional file 1). The experiment was terminated by washing three times with ice-cold HBSS supplemented with 0.0375% (v/v) sodium bicarbonate.
The hCMEC/D3 cells were used for time-dependent uptake studies between passage 3–5 (pyrilamine), 7–9 (oxycodone), 6–8 (almotriptan), and 24–31 (eletriptan).
The hCMEC/D3 cells were used for uptake studies of almotriptan, eletriptan, and sumatriptan in the presence of pyrilamine and oxycodone between passage 21–23.
(§2) The cells were permeabilized using 50% (v/v) acetonitrile (HPLC LC–MS grade, VWR International S.A.S, Soeborg, Denmark) in ultrapure water (ELGA, Buckinghamshire, England) for 10 min at room temperature. Thereafter, the cells were scraped off the bottom of the wells and transferred to HPLC vials. Samples from bidirectional transport experiments were transferred directly into HPLC vials. All samples were stored at – 18 °C for later analysis. Calibration curves with standards in the range of 1 or 5–1000 ng/mL were dissolved in 50% (v/v) acetonitrile in ultrapure water (ELGA, Buckinghamshire, England), or in hHBSS(-) for analysis of bidirectional transport samples.
(§3) Liquid chromatography tandem mass spectrometry (LC–MS/MS) were performed using electrospray ionization in positive mode on a micromass Quattro micro™ API tandem quadrupole mass spectrometer (Waters, MA, USA) or an Ultivo triple quadrupole mass spectrometer (Agilent Technologies, CA, USA) coupled to Agilent HPLC system 1100 Series or 1260 Series (Agilent Technologies, CA, USA California), respectively. Applied columns were an InfinityLab Poroshell 120 EC-C18 (3.0 × 50 mm; 2.7 micron, Agilent Technologies, CA, USA) or a Kinetex 2.6 μm XB-C18 (100 Å, 100 × 4.6 mm, Phenomenex Inc., CA, USA). An overview of applied HPLC and MS/MS parameters can be found in Additional file 2 and Additional file 3, respectively. The data acquisition software was MassLynx (V4.1, Waters, MA, USA).

H^+/OC antiporter [4] = assay: Concentration-dependent cellular uptake into hCMEC/D3 cells (Michaelis-Menten kinetics); type: cell-based, human; conditions: for Concentration-dependent uptake (saturability): hCMEC/D3 cells, tested concentration range; for Association with H^+/OC antiporter: summary of uptake and inhibition studies in hCMEC/D3 cells; for Apparent Km / Jmax / Km: uptake into hCMEC/D3 cells; for Km: read-out: Apparent Km
Procedure: (§4) The immortalized human cerebral microvascular endothelial cell line (hCMEC/D3) was maintained in T75-flasks coated with collagen type I from calf skin (C9791, 18.7 μg/mL) and cultured in EBM®-2 medium (Lonza, Basel, Schweiz) supplemented with 5% (v/v) fetal bovine serum (FBS, 10270, Life Technologies, CA, USA or SH3008803, ThermoFisher Scientific, MA, USA), 100 U/mL penicillin and 100 μg/ml streptomycin, 1 ng/mL human basic fibroblast growth factor (bFGF), 1.4 μM hydrocortisone, 1% (v/v) chemically defined lipid concentrate (ThermoFisher Scientific, MA, USA), 10 mM N-2-hydroxyethylpiperazine-N-2-ethane sulfonic acid (HEPES) and 5 μg/mL ascorbic acid (5% CO2, 37 °C). […] For experiments, cells were seeded into 24-well plates (6.7·10^4 cells/cm^2) and cultured for four continuous days. The cells were used for experiments between passage 3–31.
as §1
To assess the concentration-dependent uptake, the uptake flux was fitted to the Michaelis–Menten equation, Eq. 1.1 Jss=Jmax[S]/Km+[S] where Jss represents flux under steady state, Jmax is the maximal flux, [S] is the substrate concentration, and Km is the Michaelis–Menten constant.
The hCMEC/D3 cells were used for concentration-dependent uptake studies between passage 21–23 (pyrilamine), 11–13 (oxycodone), 12–14 (almotriptan), 16–18 (eletriptan), and 12–14 (sumatriptan).
as §2, §3
The protein content of hCMEC/D3 cells was determined for normalization purposes. Cells were washed with ice-cold phosphate buffered saline following cell lysis in cell extraction buffer (FNN0011, Thermo Fisher Scientific, MA, USA) supplemented with 1 × cOmplete™ Protease Inhibitor Cocktail (04693116001, Roche, Basel, Schweiz), 1 mM phenylmethylsulfonyl fluoride, and […] for 30 min on ice.

H^+/OC antiporter [5] = assay: Inhibition of [^3H]-pyrilamine uptake into hCMEC/D3 cells; type: cell-based, human
Procedure: as §4, §1
The inhibitory constant at 50% inhibition (IC50) was determined by fitting the uptake flux (Jss) as function of the logarithmic inhibitor concentration to Eq. 2.2 Jss=Jmin+(Jmax-Jmin)/1+10^logIC50-InH where [I] is the inhibitor concentration, nH is the Hill coefficient.
The hCMEC/D3 cells were used for [^3H]-pyrilamine inhibition studies between passage 3–6 (pyrilamine, oxycodone), 16–18 (almotriptan), 7–13 (eletriptan), 25–27 (frovatriptan), 3–8 (naratriptan), 16–18 (rizatriptan), 12–14 (sumatriptan), and 14–16 (zolmitriptan).
The cells were permeabilized using 0.1% (v/v) Triton X-100 in ultrapure water (ELGA, Buckinghamshire, England) for 10 min at room temperature. Thereafter, the cells were scraped off the bottom of the wells, transferred to scintillation vials, and mixed with 2 mL of Ultima Gold 241 TM (Perkin Elmer, MA, USA). The samples were analyzed using a Tri-Carb 2910 TR Liquid Scintillation Analyzer (Perkin Elmer, MA, USA).

[6] = cited from earlier work; for Strongest basic pKa: extracted from DrugBank
[7] = tested on: organic cation transporter 1 (OCT1); set-up: method as in PMID 35955563; conditions: cited from earlier work
P-gp [8] = molecular target: P-gp (Homo sapiens, UniProt P08183); set-up: expressed in transfected cells; host or cells: IPEC-J2 (porcine ileum epithelial cell line); method as in PMID 12438524; conditions: MDR1-MDCKII cell line; cited from earlier work
Sequence of P-gp (Homo sapiens, UniProt P08183) (P08183 whole entry): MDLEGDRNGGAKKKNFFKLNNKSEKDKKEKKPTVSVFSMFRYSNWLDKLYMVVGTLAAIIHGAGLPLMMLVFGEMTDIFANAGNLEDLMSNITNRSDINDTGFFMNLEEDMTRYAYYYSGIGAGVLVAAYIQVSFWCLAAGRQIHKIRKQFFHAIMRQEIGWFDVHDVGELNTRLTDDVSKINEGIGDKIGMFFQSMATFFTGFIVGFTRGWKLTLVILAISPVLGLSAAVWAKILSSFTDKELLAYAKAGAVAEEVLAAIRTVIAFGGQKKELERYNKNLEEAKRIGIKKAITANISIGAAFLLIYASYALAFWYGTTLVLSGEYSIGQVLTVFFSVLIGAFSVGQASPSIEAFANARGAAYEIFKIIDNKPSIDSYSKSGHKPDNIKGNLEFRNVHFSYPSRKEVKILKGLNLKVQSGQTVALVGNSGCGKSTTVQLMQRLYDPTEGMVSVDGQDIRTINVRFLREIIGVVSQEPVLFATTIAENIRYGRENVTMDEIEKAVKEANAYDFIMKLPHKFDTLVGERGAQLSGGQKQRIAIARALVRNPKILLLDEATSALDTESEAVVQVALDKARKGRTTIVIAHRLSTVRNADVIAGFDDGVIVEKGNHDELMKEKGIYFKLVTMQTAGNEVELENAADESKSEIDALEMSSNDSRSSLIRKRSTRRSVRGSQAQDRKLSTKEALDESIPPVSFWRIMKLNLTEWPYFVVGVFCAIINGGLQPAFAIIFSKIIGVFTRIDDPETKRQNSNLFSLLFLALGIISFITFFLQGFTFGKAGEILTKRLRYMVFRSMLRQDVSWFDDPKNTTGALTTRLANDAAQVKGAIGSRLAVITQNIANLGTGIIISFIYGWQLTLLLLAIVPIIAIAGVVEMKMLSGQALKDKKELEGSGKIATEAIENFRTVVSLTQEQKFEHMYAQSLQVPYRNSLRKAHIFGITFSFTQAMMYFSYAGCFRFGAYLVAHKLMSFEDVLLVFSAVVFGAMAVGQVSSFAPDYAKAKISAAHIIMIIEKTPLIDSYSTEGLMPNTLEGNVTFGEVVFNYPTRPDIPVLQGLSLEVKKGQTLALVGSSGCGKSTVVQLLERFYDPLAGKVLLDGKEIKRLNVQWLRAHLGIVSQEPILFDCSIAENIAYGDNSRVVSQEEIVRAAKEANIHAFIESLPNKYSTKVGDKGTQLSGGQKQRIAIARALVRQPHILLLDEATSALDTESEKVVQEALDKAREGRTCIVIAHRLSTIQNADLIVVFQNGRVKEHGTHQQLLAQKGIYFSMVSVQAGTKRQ

H^+/OC antiporter [9] = tested on: H^+/OC antiporter; set-up: method as in PMID 35955563; conditions: trans-stimulation in hCMEC/D3 cells; cited from earlier work
P-gp [10] = tested on: P-gp; set-up: method as in PMID 12814962; conditions: brain Kp in wild type and mdr1a knockout mice; cited from earlier work
[11] = [^3H]-pyrilamine 1 µCi/mL, 48 nM, read-out: Apparent IC50 on [^3H]-pyrilamine uptake
[12] = read-out: Apparent IC50 on [^3H]-pyrilamine uptake, [^3H]-pyrilamine 1 µCi/mL, 48 nM

Compound	Overall charge pH 7.4 [1]	Cellular uptake after intracellular alkalization (H^+/OC antiporter [2])	Cellular uptake at extracellular acidification (H^+/OC antiporter [2])	Cellular uptake at extracellular alkalization (H^+/OC antiporter [2])	Cellular uptake after intracellular acidification (H^+/OC antiporter [2])	IC50 (H^+/OC antiporter [5]; [11])	Strongest basic pKa [6]	cLogD pH 7.4 ([6]; extracted from ChemSpider)	cLogD pH 7.4 [6]	further results
CN(C)CCc1c[nH]c2ccc(CS(=O)(=O)N3CCCC3)cc12 [Almotriptan]	Positive	decreased	reduced	increased	statistically significant increase	~305 µM and 305 µM	9.6	0.3		Proton-gradient dependence of uptake (H^+/OC antiporter [2]): yes; Inhibition by oxycodone (of the compound's uptake) (H^+/OC antiporter [3]): no; Inhibition by oxycodone (of the compound's uptake) (H^+/OC antiporter [3]; listed as almotriptan): did not inhibit; Inhibition by pyrilamine (of the compound's uptake) (H^+/OC antiporter [3]): slightly inhibited; also recorded: yes (*); Concentration-dependent uptake (saturability) (H^+/OC antiporter [4]): did not show saturable uptake; Association with H^+/OC antiporter (H^+/OC antiporter [4]): (substrate) decent inhibitor; Apparent Km (H^+/OC antiporter [4]): not saturable (in tested range)
CN(C)CCc1c[nH]c2ccc(C[C@H]3COC(=O)N3)cc12 [Zolmitriptan]	Positive					1730 ± 1210 µM		0.4		OCT1 substrate [7]: substrates of OCT1; ER (P-gp [8]): 2.48; H^+/OC antiporter substrate (H^+/OC antiporter [9]): did not appear to be H^+/OC antiporter substrate candidates
CNS(=O)(=O)Cc1ccc2[nH]cc(CCN(C)C)c2c1 [Sumatriptan]	Positive	decreased	reduced	increased	decreased uptake					Proton-gradient dependence of uptake (H^+/OC antiporter [2]): yes; Inhibition by oxycodone (of the compound's uptake) (H^+/OC antiporter [3]): yes (***); Inhibition by oxycodone (of the compound's uptake) (H^+/OC antiporter [3]; listed as sumatriptan): inhibited the uptake of sumatriptan; Inhibition by pyrilamine (of the compound's uptake) (H^+/OC antiporter [3]): yes (**); Inhibition by pyrilamine (of the compound's uptake) (H^+/OC antiporter [3]; listed as sumatriptan): inhibited the uptake of sumatriptan; Concentration-dependent uptake (saturability) (H^+/OC antiporter [4]): linear increase as function of increasing concentrations; Association with H^+/OC antiporter (H^+/OC antiporter [4]): (substrate) very poor inhibitor; Apparent Km (H^+/OC antiporter [4]): not saturable (in tested range); IC50 (H^+/OC antiporter [5]; [12]): 1460 ± 189 µM
COc1ccc(CN(CCN(C)C)c2ccccn2)cc1 [Pyrilamine]	Positive	reduced cellular uptake	reduced cellular uptake	increased cellular uptake	increased cellular uptake	11 ± 6 µM			1.1	Time-dependent uptake in presence of 500 µM oxycodone (H^+/OC antiporter [3]; [^3H]-pyrilamine 48 nM): reduced; Jmax (H^+/OC antiporter [4]): 5.1 ± 0.7 nmol·min^−1·mg protein^−1; Km (H^+/OC antiporter [4]; listed as pyrilamine): ~93 µM; Km (H^+/OC antiporter [4]): 93 ± 17 µM; IC50 (H^+/OC antiporter [5]; [^3H]-pyrilamine 1 µCi/mL, 48 nM, listed as pyrilamine, read-out: Apparent IC50 on [^3H]-pyrilamine uptake): ~11 µM
CN[C@@H]1CCc2[nH]c3ccc(C(N)=O)cc3c2C1 [Frovatriptan]	Positive								− 1.5	Apparent IC50 on [^3H]-pyrilamine uptake (H^+/OC antiporter [5]; [^3H]-pyrilamine 1 µCi/mL, 48 nM): did not exhibit sufficient inhibition; OCT1 substrate [7]: substrates of OCT1; H^+/OC antiporter substrate (H^+/OC antiporter [9]): did not appear to be H^+/OC antiporter substrate candidates
CN(C)CCc1c[nH]c2ccc(Cn3cncn3)cc12 [Rizatriptan]	Positive					719 ± 243 µM			0.04	P-gp substrate (P-gp [10]): substrates of P-gp
COc1ccc2c3c1O[C@H]1C(=O)CC[C@@]4(O)[C@@H](C2)N(C)CC[C@]314 [Oxycodone]	Positive	reduced cellular uptake	reduced cellular uptake	increased cellular uptake	increased cellular uptake		8.8	0.5		Time-dependent uptake in presence of 1000 µM pyrilamine (H^+/OC antiporter [3]; oxycodone 500 µM): reduced; Jmax (H^+/OC antiporter [4]): 5.3 ± 1.0 nmol·min^−1·mg protein^−1; Km (H^+/OC antiporter [4]; listed as oxycodone): ~130 µM; Km (H^+/OC antiporter [4]): 130 ± 57 µM; IC50 (H^+/OC antiporter [5]; [12]): 225 ± 57 µM; IC50 (H^+/OC antiporter [5]; read-out: Apparent IC50 on [^3H]-pyrilamine uptake, [^3H]-pyrilamine 1 µCi/mL, 48 nM, listed as oxycodone): ~225 µM
CNS(=O)(=O)CCc1ccc2[nH]cc(C3CCN(C)CC3)c2c1 [Naratriptan]	Positive					460 ± 41 µM	9.2			P-gp substrate (P-gp [10]): substrates of P-gp
